Holding throughout (assay type): cell-based
Assay [1] has as its target KDR (phospho-KDR, VEGF165-stimulated HUVEC cells) (Homo sapiens (Human), UniProt P35968). Nature of the assay: KDR autophosphorylation ELISA in HUVEC cells (Example G). The conditions noted are these: cellular activity; KDR autophosphorylation ELISA in HUVEC cells. The procedure, abridged:
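HUVECs were serum-starved 24 h, given compound as an 8-point dilution series (0.3% DMSO final) for 1 h, then stimulated with 100 ng/mL VEGF165 for 5 min. Lysate phospho-KDR was quantified by sandwich ELISA against a phospho-KDR standard, and IC50s came from a 4-parameter logistic fit.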

Assay [2] concerns the target AXL (phospho-AXL, Gas6-stimulated A-172 glioblastoma cells) (Homo sapiens (Human), UniProt P30530). Nature of the assay: AXL autophosphorylation ELISA in A-172 cells (Example E). The note with it: cellular activity; AXL autophosphorylation ELISA in A-172 cells; read-out: Axl IC50. Summed up:
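Phospho-AXL in lysates was quantified by ELISA, normalised to DMSO (100%) and reference inhibitor (0%) controls. IC50 by 4-parameter logistic fit.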

Assay [3] deals with Mer (phospho-Mer, MERTK-transfected 293A cells) (Homo sapiens (Human), UniProt Q12866). Nature of the assay: Mer autophosphorylation ELISA in transient transfected 293A cells (Example H). The note with it: cellular activity; Mer autophosphorylation ELISA in transient transfected 293A cells. Summed up:
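293A cells transiently transfected with human MERTK were treated 1 h in serum-free medium with an 8-point compound dilution (0.3% DMSO final). Lysates were assayed by phospho-Mer sandwich ELISA against a phospho-Mer standard; IC50 came from a 4-parameter logistic fit, normalised to DMSO (100%) and reference-inhibitor (0%) controls.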
A general note: In an ELISA, binding on a coated surface is turned into a signal by an enzyme label.

Assay [4] addresses Met (phospho-Met, HGF-stimulated PC-3 prostate cancer cells) (Homo sapiens (Human), UniProt P08581). Nature of the assay: Met autophosphorylation ELISA in PC-3 cells (Example F). The note with it: cellular activity; Met autophosphorylation ELISA in PC-3 cells; read-out: c-Met IC50. The procedure, abridged:
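IC50 values derive from a 4-parameter logistic fit of phospho-Met (panTyr) sandwich ELISA signals in PC-3 lysates, scaled between DMSO and reference-inhibitor wells. Cells, starved 3 h in serum-free medium, had 1 h compound exposure (8 doses, 0.3% DMSO) before 10 min stimulation with 100 ng/mL HGF.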

As a reminder, the IC50 is the concentration at which inhibition is half-maximal.

Molecules are shown by their SMILES.

AXL (phospho-AXL, Gas6-stimulated A-172 glioblastoma cells), sequence (P30530 26-894): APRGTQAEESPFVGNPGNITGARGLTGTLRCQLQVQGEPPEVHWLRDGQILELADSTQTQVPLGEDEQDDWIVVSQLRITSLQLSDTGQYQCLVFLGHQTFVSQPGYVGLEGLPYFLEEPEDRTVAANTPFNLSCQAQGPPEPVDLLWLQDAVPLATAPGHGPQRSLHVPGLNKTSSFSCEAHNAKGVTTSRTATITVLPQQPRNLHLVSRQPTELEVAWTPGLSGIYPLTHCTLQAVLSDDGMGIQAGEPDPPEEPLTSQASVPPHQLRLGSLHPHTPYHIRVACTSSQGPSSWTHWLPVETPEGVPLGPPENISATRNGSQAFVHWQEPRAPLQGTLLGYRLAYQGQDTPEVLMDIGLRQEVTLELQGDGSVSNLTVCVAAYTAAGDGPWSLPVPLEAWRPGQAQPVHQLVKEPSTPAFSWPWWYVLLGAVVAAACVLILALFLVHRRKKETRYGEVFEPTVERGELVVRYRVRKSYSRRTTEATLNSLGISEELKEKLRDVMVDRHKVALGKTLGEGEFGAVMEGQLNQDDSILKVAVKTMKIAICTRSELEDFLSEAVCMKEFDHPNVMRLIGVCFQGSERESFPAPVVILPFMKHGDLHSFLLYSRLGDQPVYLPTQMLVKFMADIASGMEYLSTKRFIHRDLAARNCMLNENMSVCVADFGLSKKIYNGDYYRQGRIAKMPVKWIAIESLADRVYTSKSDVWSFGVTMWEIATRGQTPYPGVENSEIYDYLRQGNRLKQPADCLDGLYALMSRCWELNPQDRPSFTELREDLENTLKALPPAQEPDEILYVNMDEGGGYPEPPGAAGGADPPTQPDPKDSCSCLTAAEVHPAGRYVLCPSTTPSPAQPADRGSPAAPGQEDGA
Met (phospho-Met, HGF-stimulated PC-3 prostate cancer cells), sequence (P08581 25-1390): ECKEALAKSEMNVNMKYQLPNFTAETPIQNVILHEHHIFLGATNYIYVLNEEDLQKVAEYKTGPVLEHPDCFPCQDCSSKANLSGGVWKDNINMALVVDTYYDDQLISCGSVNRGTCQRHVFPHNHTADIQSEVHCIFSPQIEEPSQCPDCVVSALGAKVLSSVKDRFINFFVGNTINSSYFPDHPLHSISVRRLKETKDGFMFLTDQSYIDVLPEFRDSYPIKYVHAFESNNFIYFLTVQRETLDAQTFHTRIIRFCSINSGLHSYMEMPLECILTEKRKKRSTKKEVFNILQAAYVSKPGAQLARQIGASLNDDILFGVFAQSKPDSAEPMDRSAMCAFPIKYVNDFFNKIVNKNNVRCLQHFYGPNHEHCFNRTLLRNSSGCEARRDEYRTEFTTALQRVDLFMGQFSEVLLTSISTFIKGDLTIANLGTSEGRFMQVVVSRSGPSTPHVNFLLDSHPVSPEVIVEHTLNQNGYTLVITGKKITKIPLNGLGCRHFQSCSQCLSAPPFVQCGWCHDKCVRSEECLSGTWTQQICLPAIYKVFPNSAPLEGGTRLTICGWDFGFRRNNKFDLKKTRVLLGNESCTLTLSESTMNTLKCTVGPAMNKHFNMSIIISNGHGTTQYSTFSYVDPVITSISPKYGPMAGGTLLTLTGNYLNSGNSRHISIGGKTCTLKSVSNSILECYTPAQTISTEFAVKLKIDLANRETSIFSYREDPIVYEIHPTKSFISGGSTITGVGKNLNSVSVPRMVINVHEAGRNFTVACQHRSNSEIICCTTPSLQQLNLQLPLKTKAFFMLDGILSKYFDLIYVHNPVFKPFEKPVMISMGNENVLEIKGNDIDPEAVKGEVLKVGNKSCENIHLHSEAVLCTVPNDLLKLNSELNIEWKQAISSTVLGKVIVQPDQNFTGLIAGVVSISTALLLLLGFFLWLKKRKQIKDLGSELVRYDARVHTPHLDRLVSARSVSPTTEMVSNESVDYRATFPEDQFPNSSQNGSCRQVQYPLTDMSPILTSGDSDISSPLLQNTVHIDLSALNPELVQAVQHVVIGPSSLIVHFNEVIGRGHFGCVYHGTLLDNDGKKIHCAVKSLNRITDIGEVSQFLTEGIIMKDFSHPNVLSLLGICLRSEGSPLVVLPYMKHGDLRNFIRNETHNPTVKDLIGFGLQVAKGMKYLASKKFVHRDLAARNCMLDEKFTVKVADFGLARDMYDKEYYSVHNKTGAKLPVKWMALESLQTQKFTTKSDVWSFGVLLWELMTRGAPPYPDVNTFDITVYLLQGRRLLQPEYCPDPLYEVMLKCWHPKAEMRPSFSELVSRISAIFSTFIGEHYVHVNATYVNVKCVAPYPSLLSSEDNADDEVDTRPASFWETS
Mer (phospho-Mer, MERTK-transfected 293A cells), sequence (Q12866 21-999): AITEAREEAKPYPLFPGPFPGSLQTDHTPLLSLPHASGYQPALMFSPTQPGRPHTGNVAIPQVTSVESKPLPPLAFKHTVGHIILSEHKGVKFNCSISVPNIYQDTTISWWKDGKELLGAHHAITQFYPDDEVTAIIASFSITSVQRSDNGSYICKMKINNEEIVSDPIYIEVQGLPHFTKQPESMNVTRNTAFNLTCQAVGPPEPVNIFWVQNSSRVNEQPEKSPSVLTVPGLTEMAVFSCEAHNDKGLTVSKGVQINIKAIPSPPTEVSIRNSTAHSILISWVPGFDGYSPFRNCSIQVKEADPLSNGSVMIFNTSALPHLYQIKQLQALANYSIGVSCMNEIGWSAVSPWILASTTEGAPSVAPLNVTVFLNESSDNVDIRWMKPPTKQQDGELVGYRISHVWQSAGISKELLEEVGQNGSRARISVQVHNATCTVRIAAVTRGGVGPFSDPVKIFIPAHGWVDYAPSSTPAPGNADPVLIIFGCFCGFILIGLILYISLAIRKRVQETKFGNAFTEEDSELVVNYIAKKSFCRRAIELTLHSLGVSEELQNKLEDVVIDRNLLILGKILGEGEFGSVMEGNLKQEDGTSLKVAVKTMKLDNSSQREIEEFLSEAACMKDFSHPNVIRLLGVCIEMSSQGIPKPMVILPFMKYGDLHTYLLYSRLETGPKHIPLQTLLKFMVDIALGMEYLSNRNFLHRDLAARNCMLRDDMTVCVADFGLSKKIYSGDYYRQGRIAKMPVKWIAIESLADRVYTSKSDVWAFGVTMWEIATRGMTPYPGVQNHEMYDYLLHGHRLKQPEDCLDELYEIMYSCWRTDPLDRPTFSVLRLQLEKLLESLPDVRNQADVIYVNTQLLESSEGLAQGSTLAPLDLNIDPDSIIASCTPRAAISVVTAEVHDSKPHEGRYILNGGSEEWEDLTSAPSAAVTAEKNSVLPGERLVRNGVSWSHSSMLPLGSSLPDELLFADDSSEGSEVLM
KDR (phospho-KDR, VEGF165-stimulated HUVEC cells), sequence (P35968 20-1356): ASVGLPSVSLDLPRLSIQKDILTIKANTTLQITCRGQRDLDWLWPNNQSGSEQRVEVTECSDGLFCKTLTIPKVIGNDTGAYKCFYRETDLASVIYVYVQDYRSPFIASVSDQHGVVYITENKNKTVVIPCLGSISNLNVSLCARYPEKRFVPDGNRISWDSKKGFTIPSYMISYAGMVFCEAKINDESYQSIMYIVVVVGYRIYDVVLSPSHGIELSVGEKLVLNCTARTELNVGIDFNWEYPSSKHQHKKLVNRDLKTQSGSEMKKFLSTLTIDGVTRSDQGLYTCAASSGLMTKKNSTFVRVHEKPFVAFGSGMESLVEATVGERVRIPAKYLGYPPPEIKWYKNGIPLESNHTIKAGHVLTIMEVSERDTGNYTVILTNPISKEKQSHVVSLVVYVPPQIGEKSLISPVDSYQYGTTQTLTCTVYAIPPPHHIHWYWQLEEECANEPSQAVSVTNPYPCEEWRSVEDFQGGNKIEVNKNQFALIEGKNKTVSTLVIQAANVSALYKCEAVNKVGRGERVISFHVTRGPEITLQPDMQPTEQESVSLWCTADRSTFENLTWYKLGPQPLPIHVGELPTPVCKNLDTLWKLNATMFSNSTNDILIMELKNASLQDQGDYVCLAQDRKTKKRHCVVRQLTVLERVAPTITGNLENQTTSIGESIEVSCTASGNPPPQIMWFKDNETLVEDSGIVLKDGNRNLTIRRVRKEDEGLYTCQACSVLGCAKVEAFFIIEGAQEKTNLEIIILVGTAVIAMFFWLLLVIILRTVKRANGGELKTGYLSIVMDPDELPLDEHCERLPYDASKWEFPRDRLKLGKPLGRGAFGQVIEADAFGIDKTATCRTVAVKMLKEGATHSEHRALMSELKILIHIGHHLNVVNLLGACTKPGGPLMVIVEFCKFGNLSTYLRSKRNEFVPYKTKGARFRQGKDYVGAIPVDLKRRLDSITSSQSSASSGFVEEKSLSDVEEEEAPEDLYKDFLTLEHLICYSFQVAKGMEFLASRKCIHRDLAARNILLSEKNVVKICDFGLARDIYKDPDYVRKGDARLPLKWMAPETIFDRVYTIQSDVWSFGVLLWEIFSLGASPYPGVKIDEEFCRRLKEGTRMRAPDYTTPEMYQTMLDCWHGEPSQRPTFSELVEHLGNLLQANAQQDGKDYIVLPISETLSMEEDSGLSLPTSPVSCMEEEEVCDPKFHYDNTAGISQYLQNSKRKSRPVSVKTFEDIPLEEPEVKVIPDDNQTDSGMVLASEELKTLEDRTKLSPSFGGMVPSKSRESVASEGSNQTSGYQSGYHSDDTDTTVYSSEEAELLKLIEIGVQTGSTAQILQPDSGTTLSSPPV

Turning to `COc1nc2c(Oc3ccc(NC(=O)c4c(C)nc(C)n(-c5ccc(F)cc5)c4=O)cc3F)ccnc2cc1C` [Compound 468, N-[3-fluoro-4-[(6-methoxy-7-methyl-1,5-naphthyridin-4-yl)oxy]phenyl]-1-(4-fluorophenyl)-2,4-dimethyl-6-oxopyrimidine-5-carboxamide], the half-maximal inhibitory concentration (IC50) in assay [1], in assay [2], in assay [3] and in assay [4] was less than 100 nM throughout.
Turning to `COCc1nc(C)c(-c2ccc(F)cc2)c(O)c1C(=O)Nc1ccc(Oc2ccnc3cc(C)c(OC)nc23)c(F)c1` [Compound 469, N-[3-fluoro-4-[(6-methoxy-7-methyl-1,5-naphthyridin-4-yl)oxy]phenyl]-5-(4-fluorophenyl)-4-hydroxy-2-(methoxymethyl)-6-methylpyridine-3-carboxamide], the half-maximal inhibitory concentration (IC50) in assay [1], in assay [2], in assay [3] and in assay [4] was less than 100 nM throughout.
As to `COCc1nc(C)c(-c2ccc(F)cc2C)c(O)c1C(=O)Nc1ccc(Oc2ccnc3cc(C)c(OC)nc23)c(F)c1` [Compound 470, N-[3-fluoro-4-[(6-methoxy-7-methyl-1,5-naphthyridin-4-yl)oxy]phenyl]-5-(4-fluoro-2-methylphenyl)-4-hydroxy-2-(methoxymethyl)-6-methylpyridine-3-carboxamide], the IC50 in assay [1], in assay [2], in assay [3] and in assay [4] was less than 100 nM throughout.
As for `COc1nc2c(Oc3ccc(NC(=O)c4c(C)nc(C)c(-c5ccc(F)cc5C)c4O)cc3F)ccnc2cc1C` [Compound 471, N-[3-fluoro-4-[(6-methoxy-7-methyl-1,5-naphthyridin-4-yl)oxy]phenyl]-5-(4-fluoro-2-methylphenyl)-4-hydroxy-2,6-dimethylpyridine-3-carboxamide], the IC50 in assay [1], in assay [2], in assay [3] and in assay [4] was less than 100 nM throughout.
On to `COc1nc2c(Oc3ccc(NC(=O)c4n[nH]c(C)c(-c5ccc(F)cc5)c4=O)cc3F)ccnc2cc1C` [Compound 472, N-[3-fluoro-4-[(6-methoxy-7-methyl-1,5-naphthyridin-4-yl)oxy]phenyl]-5-(4-fluorophenyl)-6-methyl-4-oxo-1H-pyridazine-3-carboxamide], for which the half-maximal inhibitory concentration (IC50) in assay [1], in assay [2], in assay [3] and in assay [4] was less than 100 nM each time.
Regarding `COc1nc2c(Oc3ccc(NC(=O)c4n[nH]c(C)c(-c5ccc(F)cc5C)c4=O)cc3F)ccnc2cc1C` [Compound 473, N-[3-fluoro-4-[(6-methoxy-7-methyl-1,5-naphthyridin-4-yl)oxy]phenyl]-5-(4-fluoro-2-methylphenyl)-6-methyl-4-oxo-1H-pyridazine-3-carboxamide], the concentration for half-maximal inhibition (IC50) in assay [1] is more than 300 nM; in assay [2], less than 100 nM; in assay [3], less than 100 nM; in assay [4] it was more than 300 nM.
As to `C=C(C)c1cnc2c(Oc3ccc(NC(=O)c4c(C)ncc(-c5ccc(F)cc5C)c4O)cc3F)ccnc2c1` [Compound 474, 5-(4-fluoro-2-methylphenyl)-N-[3-fluoro-4-[(7-prop-1-en-2-yl-1,5-naphthyridin-4-yl)oxy]phenyl]-4-hydroxy-2-methylpyridine-3-carboxamide], the IC50 in assay [1], in assay [2], in assay [3] and in assay [4] was less than 100 nM in each case.
Take `C=C(C)c1cnc2c(Oc3ccc(NC(=O)c4nn(CC)c(C)c(-c5ccc(F)cc5)c4=O)cc3F)ccnc2c1` [Compound 475, 1-ethyl-5-(4-fluorophenyl)-N-[3-fluoro-4-[(7-prop-1-en-2-yl-1,5-naphthyridin-4-yl)oxy]phenyl]-6-methyl-4-oxopyridazine-3-carboxamide]: the IC50 in assay [1], in assay [2], in assay [3] and in assay [4] was less than 100 nM in each case.
